# Data as given in PubChem BioAssay (NCI).
#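 Method: 48-hour compound exposure of cells in 96-well plates, five concentrations, linear interpolation of endpoints. TGI: total growth inhibition.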
# Tests used:
# Assay in all cases: DTP human tumour cell line panel, 48 h
# [1] = system: CCRF-CEM leukemia
# [2] = system: KM12 colon
# [3] = system: SF-539 CNS
# [4] = system: MOLT-4 leukemia
# [5] = system: OVCAR-3 ovarian
# [6] = system: NCI-H460 lung
# [7] = system: NCI-H23 lung
# [8] = system: RXF 393 renal
# [9] = system: NCI-H522 lung
# [10] = system: A498 renal
# [11] = system: SN12C renal
# [12] = system: UACC-257 melanoma
# [13] = system: 786-0 renal
# [14] = system: HT29 colon
# [15] = system: HL-60(TB) leukemia
# [16] = system: UO-31 renal
# [17] = system: IGROV1 ovarian
# [18] = system: M19-MEL melanoma
# [19] = system: COLO 205 colon
# [20] = system: M14 melanoma
# [21] = system: NCI-H226 lung
# [22] = system: OVCAR-5 ovarian
# [23] = system: SNB-78 CNS
# [24] = system: OVCAR-8 ovarian
# [25] = system: OVCAR-4 ovarian
# [26] = system: SF-268 CNS
# [27] = system: HOP-62 NSCLC
# [28] = system: TK-10 renal
# [29] = system: SK-MEL-5 melanoma
# [30] = system: DMS 273 small cell lung
# [31] = system: SW-620 colon
# [32] = system: UACC-62 melanoma
# [33] = system: DLD-1 colon
# [34] = system: HOP-92 NSCLC
# [35] = system: SK-OV-3 ovarian
# [36] = system: EKVX NSCLC
# [37] = system: LOX IMVI melanoma
# [38] = system: HCT-15 colon
# [39] = system: A549 NSCLC
# [40] = system: MALME-3M melanoma
# [41] = system: U251 CNS
# [42] = system: RPMI-8226 leukemia
# [43] = system: KM20L2 colon
# [44] = system: ACHN renal
# [45] = system: SNB-75 CNS
# [46] = system: HOP-18 NSCLC
# [47] = system: DMS 114 small cell lung
# [48] = system: SF-295 CNS
# [49] = system: SNB-19 CNS
# [50] = system: LXFL 529 NSCLC
# [51] = system: HCC-2998 colon
# [52] = system: SK-MEL-28 melanoma
# [53] = system: HCT-116 colon
# [54] = system: K-562 leukemia
# [55] = system: DU-145 prostate
# [56] = system: SR leukemia
# [57] = system: HS 578T breast
# [58] = system: PC-3 prostate
# [59] = system: NCI/ADR-RES ovarian
# [60] = system: XF 498 CNS
# [61] = system: CAKI-1 renal
# [62] = system: SK-MEL-2 melanoma
structure (smiles),measurement,setting,value
COc1ccccc1C(N)c1ccccc1 (centres undefined),TGI,[1],> 100 µM
same,TGI,[2],> 100 µM
same,TGI,[3],> 100 µM
same,TGI,[4],> 100 µM
same,TGI,[5],> 100 µM
same,TGI,[6],> 100 µM
same,TGI,[7],> 100 µM
same,TGI,[8],> 100 µM
same,TGI,[9],> 100 µM
same,TGI,[10],> 100 µM
same,TGI,[11],> 100 µM
same,TGI,[12],> 100 µM
same,TGI,[13],> 100 µM
same,TGI,[14],> 100 µM
same,TGI,[15],> 100 µM
same,TGI,[16],> 100 µM
same,TGI,[17],> 100 µM
same,TGI,[18],> 100 µM
same,TGI,[19],> 100 µM
same,TGI,[20],> 100 µM
same,TGI,[21],> 100 µM
same,TGI,[22],> 100 µM
same,TGI,[23],> 100 µM
same,TGI,[24],> 100 µM
same,TGI,[25],> 100 µM
same,TGI,[26],> 100 µM
same,TGI,[27],> 100 µM
same,TGI,[28],> 100 µM
same,TGI,[29],> 100 µM
same,TGI,[30],> 100 µM
same,TGI,[31],> 100 µM
same,TGI,[32],> 100 µM
same,TGI,[33],> 100 µM
same,TGI,[34],> 100 µM
same,TGI,[35],> 100 µM
same,TGI,[36],> 100 µM
same,TGI,[37],> 100 µM
same,TGI,[38],> 100 µM
same,TGI,[39],> 100 µM
same,TGI,[40],> 100 µM
same,TGI,[41],> 100 µM
same,TGI,[42],> 100 µM
same,TGI,[43],> 100 µM
same,TGI,[44],> 100 µM
same,TGI,[45],> 100 µM
same,TGI,[46],> 100 µM
same,TGI,[47],> 100 µM
same,TGI,[48],> 100 µM
same,TGI,[49],> 100 µM
same,TGI,[50],> 100 µM
same,TGI,[51],> 100 µM
same,TGI,[52],> 100 µM
same,TGI,[53],> 100 µM
same,TGI,[54],> 100 µM
CN(C)[C@H]1CC[C@H]2[C@@H]3CCC4C[C@@H](NC(=O)NC(Cc5ccccc5)c5nccs5)CC[C@]4(C)[C@H]3CC[C@]12C (some centres undefined),TGI,[55],6.67 µM
same,TGI,[2],3.44 µM
same,TGI,[3],3.37 µM
same,TGI,[56],4.14 µM
same,TGI,[5],3.43 µM
same,TGI,[7],3.89 µM
same,TGI,[57],5.36 µM
same,TGI,[11],3.36 µM
same,TGI,[12],3.63 µM
same,TGI,[58],2.35 µM
same,TGI,[14],1.9 µM
same,TGI,[15],0.376 µM
same,TGI,[16],3.38 µM
same,TGI,[18],3.41 µM
same,TGI,[59],4.83 µM
same,TGI,[19],3.05 µM
same,TGI,[20],3.23 µM
same,TGI,[21],3.89 µM
same,TGI,[22],3.2 µM
same,TGI,[60],2.51 µM
same,TGI,[25],3.18 µM
same,TGI,[28],3.89 µM
same,TGI,[29],3.38 µM
same,TGI,[30],3.86 µM
same,TGI,[32],3.46 µM
same,TGI,[34],2.82 µM
same,TGI,[35],3.09 µM
same,TGI,[37],3.46 µM
same,TGI,[38],2.03 µM
same,TGI,[40],3.37 µM
same,TGI,[42],3.28 µM
same,TGI,[43],2.81 µM
same,TGI,[61],3.11 µM
same,TGI,[44],2.86 µM
same,TGI,[47],3.31 µM
same,TGI,[49],3.74 µM
same,TGI,[50],1.61 µM
same,TGI,[51],3.16 µM
same,TGI,[53],1.33 µM
same,TGI,[62],3.41 µM
